Measurements: US9249125B2, “Pyrazole derivatives as p38 MAP inhibitors” (RESPIVERT LIMITED, priority 2012, dated 2016)

Experiments:
GSK3α = GSK3α (Homo sapiens (Human), UniProt P49840); assay: GSK 3α enzyme inhibition (FRET, Z-LYTE); assay type: biochemical
In short: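 GSK3α (500 ng/mL stock) was preincubated 2 hr at RT with compound (4 to 0.004 μg/mL stocks), then FRET peptide (8 μM stock) and ATP (40 μM stock) added for 1 hr. Protease development for 1 hr cleaved unphosphorylated peptide; coumarin/fluorescein emission ratio reported phosphorylation.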

HRV16 = HRV16 induced CPE in MRC5 cells; assay type: cell-based, human rhinovirus; conditions: MRC5 cells; screened at concentrations up to 0.32 ng/mL
Procedure: The supernatants are aspirated, and then fresh media added followed by incubation for 4 days. Where appropriate, cells are pre-incubated with compound or DMSO for 2 hr, and the compounds and DMSO added again after washout of the virus.
Supernatants are aspirated and incubated with methylene blue solution (100 μL, 2% formaldehyde, 10% methanol and 0.175% Methylene Blue) for 2 hr at RT. […] The percentage inhibition for each well is calculated. The IC50 value is calculated from the concentration-response curve generated by the serial dilutions of the test compounds.

cSrc = cSrc (Homo sapiens (Human), UniProt P12931); assay: c-Src enzyme inhibition (FRET, Z-LYTE); assay type: biochemical
cSrc, sequence (P12931 whole entry, looked up): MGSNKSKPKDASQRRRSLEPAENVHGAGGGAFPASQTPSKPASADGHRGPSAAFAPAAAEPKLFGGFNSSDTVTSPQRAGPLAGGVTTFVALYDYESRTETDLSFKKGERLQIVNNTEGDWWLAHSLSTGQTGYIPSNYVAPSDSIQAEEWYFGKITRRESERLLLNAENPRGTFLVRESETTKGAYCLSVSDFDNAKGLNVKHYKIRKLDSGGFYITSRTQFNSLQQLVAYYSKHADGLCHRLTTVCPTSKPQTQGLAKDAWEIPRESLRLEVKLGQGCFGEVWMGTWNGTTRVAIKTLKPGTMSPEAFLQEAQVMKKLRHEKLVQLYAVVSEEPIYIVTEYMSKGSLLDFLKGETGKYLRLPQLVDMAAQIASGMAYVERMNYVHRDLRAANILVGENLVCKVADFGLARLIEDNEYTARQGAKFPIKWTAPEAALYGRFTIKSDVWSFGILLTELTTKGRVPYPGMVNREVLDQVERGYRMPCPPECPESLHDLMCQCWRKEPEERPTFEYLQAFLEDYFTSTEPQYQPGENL
In short: (§1)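 Z-LYTE FRET kinase assay: enzyme (3000 or 2000 ng/mL stock, respectively) preincubated 2 h at RT with compound (4–0.004 μg/mL stocks), then FRET peptide plus ATP (800 μM stock for c-Src, 60 μM for Syk) added for 1 h. Protease development 1 h; phosphorylation from coumarin/fluorescein emission ratio.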

Syk = Syk (Homo sapiens (Human), UniProt P43405); assay: Syk enzyme inhibition (FRET, Z-LYTE); assay type: biochemical
In short: as §1

[1] = tested on: Poly I:C-induced ICAM-1 expression in BEAS2B cells; assay: Poly I:C-induced ICAM-1 expression in BEAS2B cells; assay type: cell-based; conditions: Homo sapiens, BEAS-2B, read-out: Poly IC induced ICAM1 in BEAS2B IC50
In short: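 BEAS2B human bronchial epithelial cells pre-incubated with compound for 2 hr, then transfected with 1 μg/mL poly I:C plus Oligofectamine. At 18 hr, surface ICAM-1 measured by cell-based ELISA (HRP, OD450–655). Signal corrected for cell number by crystal violet OD595.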

[2] = tested on: LPS-induced TNFα release in d-U937 cells; assay: LPS-induced TNFα release in d-U937 cells; assay type: cell-based; conditions: Homo sapiens, dU937, relative to 10 μg/mL BIRB796, read-out: LPS Induced Release of Cytokine in d-937 Cells TNFα REC50
In short: (§2)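 PMA-differentiated (100 ng/mL, 48–72 hr) U937 cells pre-incubated with compound 2 hr, then stimulated with LPS (0.1 μg/mL, E. coli O111:B4) for 4 hr. Supernatant TNFα and IL-8 measured by sandwich ELISA; inhibition versus vehicle control, REC50 from concentration-response curve.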

[3] = tested on: LPS-induced IL-8 release in d-U937 cells; assay: LPS-induced IL-8 release in d-U937 cells; assay type: cell-based; conditions: Homo sapiens, dU937, read-out: LPS Induced Release of Cytokine in d-937 Cells IL-8 IC50
In short: as §2

p38 MAPKα = p38 MAPKα (Homo sapiens (Human), UniProt Q16539); assay: p38 MAPKα enzyme inhibition (FRET, Z-LYTE); assay type: biochemical
p38 MAPKα, sequence (Q16539 whole entry): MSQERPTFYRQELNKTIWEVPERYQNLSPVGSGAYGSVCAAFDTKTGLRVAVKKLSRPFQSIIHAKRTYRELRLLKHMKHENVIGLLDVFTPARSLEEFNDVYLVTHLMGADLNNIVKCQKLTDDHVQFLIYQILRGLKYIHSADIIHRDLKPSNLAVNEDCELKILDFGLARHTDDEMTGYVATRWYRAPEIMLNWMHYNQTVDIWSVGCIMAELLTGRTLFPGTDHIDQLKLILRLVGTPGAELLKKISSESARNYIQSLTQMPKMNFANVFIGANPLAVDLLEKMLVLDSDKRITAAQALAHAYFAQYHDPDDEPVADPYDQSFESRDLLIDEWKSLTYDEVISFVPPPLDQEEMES

d-U937 cells = assay: Cell viability: MTT assay; assay type: cell-based, human; conditions: 1 μg/mL
In short: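 Differentiated U937 cells were exposed to compound at 1 or 10 μg/mL either 4 h in 5% FCS RPMI1640 or 24 h in 10% FCS RPMI1640, then given MTT for 1 h, DMSO-solubilised and read at 550 nm. Percent viability loss versus 0.5% DMSO vehicle; apparent gains appear negative.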

[4] = tested on: LPS-induced airways neutrophilia in mice; assay: LPS-induced neutrophil accumulation in mice; assay type: in vivo; conditions: Test Substance at 0.2 mg/mL, intra tracheal, dosed 8 hr pre-LPS challenge
Procedure: Non-fasted Balb/c mice are dosed by the intra tracheal route with either vehicle, or the test substance at the indicated times (within the range 2-8 hr) before stimulation of the inflammatory response by application of an LPS challenge. At T=0, mice are placed into an exposure chamber and exposed to LPS (7.0 mL, 0.5 mg/mL solution in PBS) for 30 min). After a further 8 hr the animals are anesthetized, their tracheas cannulated and BALF extracted by infusing and then withdrawing from their lungs 1.0 mL of PBS via the tracheal catheter. Total and differential white cell counts in the BALF samples are measured using a Neubaur haemocytometer. Cytospin smears of the BALF samples are prepared by centrifugation at 200 rpm for 5 min at RT and stained using a DiffQuik stain system (Dade Behring). Cells are counted using oil immersion microscopy. Data for neutrophil numbers in BAL are shown as mean±S.E.M. (standard error of the mean). The percentage inhibition of neutrophil accumulation is calculated for each treatment relative to vehicle treatment.

GSK3α, sequence (P49840 whole entry): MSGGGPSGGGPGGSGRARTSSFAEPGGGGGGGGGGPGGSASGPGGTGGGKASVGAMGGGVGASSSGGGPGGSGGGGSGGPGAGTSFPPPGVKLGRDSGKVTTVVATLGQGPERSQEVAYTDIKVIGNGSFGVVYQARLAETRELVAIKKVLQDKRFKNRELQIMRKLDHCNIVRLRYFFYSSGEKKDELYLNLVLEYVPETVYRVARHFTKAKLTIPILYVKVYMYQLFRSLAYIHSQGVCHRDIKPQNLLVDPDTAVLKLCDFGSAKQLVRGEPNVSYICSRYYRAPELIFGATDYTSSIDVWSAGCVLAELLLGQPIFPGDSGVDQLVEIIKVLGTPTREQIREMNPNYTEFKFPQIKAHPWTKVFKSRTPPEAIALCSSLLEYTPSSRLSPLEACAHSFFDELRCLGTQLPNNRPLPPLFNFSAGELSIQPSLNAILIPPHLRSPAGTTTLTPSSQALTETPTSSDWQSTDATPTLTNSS

Compound | IC50 (GSK3α) | HRV induced CPE in MRC5 Cells % Inhibition Observed (HRV16) | IC50 (cSrc) | IC50 (Syk) | IC50 [1] | EC50 [2] | IC50 [3] | IC50 (p38 MAPKα) | MTT Assay Cell viability at time point in d-U937 cells 4 h (d-U937 cells) | MTT Assay Cell viability at time point in d-U937 cells 24 h (d-U937 cells) | % Inhibition of neutrophil accumulation in BAL [4] | Neutrophil numbers in BAL (+/−SEM) [4]
Cc1ccc(-n2nc(C(C)(C)C)cc2NC(=O)Nc2ccc(Oc3ccnc(Nc4ccc5onc(N)c5c4)n3)c3ccccc23)cc1 [Example 5, 1-(4-((2-((3-Aminobenzo[d]isoxazol-5-yl)amino)pyrimidin-4-yl)oxy)naphthalen-1-yl)-3-(3-(tert-butyl)-1-(p-tolyl)-1H-pyrazol-5-yl)urea] | > 1560 nM | 100% | > 1560 nM | 49 nM | 0.6 nM | 1.1 nM | 1.7 nM | 81 nM | −ve (−ve and +ve indicate that the value is below and above respectively, the no significant effect threshold, defined as 30% inhibition at 1 μg/mL at the time point indicated.) | −ve (−ve and +ve indicate that the value is below and above respectively, the no significant effect threshold, defined as 30% inhibition at 1 μg/mL at the time point indicated.) |  | 
COc1ccc(-n2nc(C(C)(C)C)cc2NC(=O)Nc2ccc(Oc3ccnc(Nc4cc(C)c5[nH]ncc5c4)n3)c3ccccc23)cc1 [Example 42, 1-(3-(tert-butyl)-1-(4-methoxyphenyl)-1H-pyrazol-5-yl)-3-(4-((2-((7-methyl-1H-indazol-5-yl)amino)pyrimidin-4-yl)oxy)naphthalen-1-yl)urea] | > 1530 nM |  | 5 nM | 5 nM | 1.4 nM | 1.7 nM | 1.4 nM | 67 nM | −ve (−ve and +ve indicate that the value is below and above respectively, the no significant effect threshold, defined as 30% inhibition at 1 μg/mL at the time point indicated.) | +ve (−ve and +ve indicate that the value is below and above respectively, the no significant effect threshold, defined as 30% inhibition at 1 μg/mL at the time point indicated.) | 50% | 8.5 ± 1.5 ×10^5/mL
COc1ccc(-n2nc(C(C)(C)C)cc2NC(=O)Nc2ccc(Oc3ccnc(Nc4ccc5[nH]ncc5c4)n3)c3ccccc23)cn1 [Example 13, 1-(4-((2-((1H-Indazol-5-yl)amino)pyrimidin-4-yl)oxy)naphthalen-1-yl)-3-(3-(tert-butyl)-1-(6-methoxypyridin-3-yl)-1H-pyrazol-5-yl)urea] | > 1560 nM |  | 3 nM | 8 nM | 2.4 nM | 1.6 nM | 0.5 nM | 30 nM | −ve (−ve and +ve indicate that the value is below and above respectively, the no significant effect threshold, defined as 30% inhibition at 1 μg/mL at the time point indicated.) | −ve (−ve and +ve indicate that the value is below and above respectively, the no significant effect threshold, defined as 30% inhibition at 1 μg/mL at the time point indicated.) | 50% | 8.5 ± 1.4 ×10^5/mL
COc1ccc(-n2nc(C(C)C)cc2NC(=O)Nc2ccc(Oc3cc(Nc4ccc5[nH]ncc5c4)ncn3)c3ccccc23)cc1 [Example 39, 1-(4-((6-((1H-indazol-5-yl)amino)pyrimidin-4-yl)oxy)naphthalen-1-yl)-3-(3-isopropyl-1-(4-methoxyphenyl)-1H-pyrazol-5-yl)urea] | > 16000 nM |  | 11 nM | 39 nM | 160 nM | 5.8 nM | 15.3 nM | 10 nM | −ve (−ve and +ve indicate that the value is below and above respectively, the no significant effect threshold, defined as 30% inhibition at 1 μg/mL at the time point indicated.) | −ve (−ve and +ve indicate that the value is below and above respectively, the no significant effect threshold, defined as 30% inhibition at 1 μg/mL at the time point indicated.) |  | 
Cc1cc(Nc2nccc(Oc3ccc(NC(=O)Nc4cc(C(C)(C)C)nn4-c4ccc(=O)n(CCO)c4)c4ccccc34)n2)cc2cn[nH]c12 [Example 87, 1-(3-(tert-butyl)-1-(1-(2-hydroxyethyl)-6-oxo-1,6-dihydropyridin-3-yl)-1H-pyrazol-5-yl)-3-(4-((2-((7-methyl-1H-indazol-5-yl)amino)pyrimidin-4-yl)oxy)naphthalen-1-yl)urea] | 1100 nM |  | 2 nM | 4 nM | 1 nM | 1.7 nM | 2.3 nM | 45 nM | −ve (−ve and +ve indicate that the value is below and above respectively, the no significant effect threshold, defined as 30% inhibition at 1 μg/mL at the time point indicated.) | −ve (−ve and +ve indicate that the value is below and above respectively, the no significant effect threshold, defined as 30% inhibition at 1 μg/mL at the time point indicated.) |  | 
Cc1n[nH]c2cc(Nc3nccc(Oc4ccc(NC(=O)Nc5cc(C(C)(C)C)nn5-c5ccc(OCCN6CCOCC6)cc5)c5ccccc45)n3)ccc12 [Example 71, 1-(3-(tert-butyl)-1-(4-(2-morpholinoethoxy)phenyl)-1H-pyrazol-5-yl)-3-(4-((2-((3-methyl-1H-indazol-6-yl)amino)pyrimidin-4-yl)oxy)naphthalen-1-yl)urea] | 3440 nM |  | 12 nM | 9 nM | 2.2 nM | 11.1 nM | > 1330 nM | 269 nM | −ve (−ve and +ve indicate that the value is below and above respectively, the no significant effect threshold, defined as 30% inhibition at 1 μg/mL at the time point indicated.) | −ve (−ve and +ve indicate that the value is below and above respectively, the no significant effect threshold, defined as 30% inhibition at 1 μg/mL at the time point indicated.) |  | 
CC(C)(C)c1cc(NC(=O)Nc2ccc(Oc3ccnc(Nc4ccc5[nH]ccc5c4)n3)c3ccccc23)n(-c2cccc(CN3CCCC3=O)c2)n1 [Example 48, 1-(4-((2-((1H-indol-5-yl)amino)pyrimidin-4-yl)oxy)naphthalen-1-yl)-3-(3-(tert-butyl)-1-(3-((2-oxopyrrolidin-1-yl)methyl)phenyl)-1H-pyrazol-5-yl)urea] | > 1420 nM |  | 4 nM | 18 nM | 6.9 nM | 5.3 nM | 16.6 nM | 70 nM | −ve (−ve and +ve indicate that the value is below and above respectively, the no significant effect threshold, defined as 30% inhibition at 1 μg/mL at the time point indicated.) | −ve (−ve and +ve indicate that the value is below and above respectively, the no significant effect threshold, defined as 30% inhibition at 1 μg/mL at the time point indicated.) |  | 
